Test [1] relates to P. morganii IFO 3168. Description: Minimal inhibitory concentration (M.I.C.), agar dilution method. In kind it is cell-based, Proteus morganii. To be noted: TSA, inoculum 10^7 /ml. The source says: (§1) (a) Determination of minimal inhibitory concentrations (Tables 1 to 8):
(§2) Procedure: agar dilution method
In general terms: In agar dilution the substance is mixed into plates at graded concentrations.

Test [2] relates to P. vulgaris GN 4413. Described as above. Conditions: TSA, inoculum 10^7 /ml. In kind it is cell-based, Proteus vulgaris.
Source text: as §1, §2

The subject of test [3] is P. vulgaris IFO 3988. The description is as above. In kind it is cell-based, Proteus vulgaris. Conditions: TSA, inoculum 10^7 /ml.
Source text: as §1, §2

Test [4] concerns S. marcescens TN 24. The description is as above. In kind it is cell-based, Serratia marcescens. Conditions: TSA, inoculum 10^7 /ml.
Source text: as §1, §2

Test [5] has as its system S. marcescens IFO 12648. The description is as above. The test is classed as cell-based, Serratia marcescens. Conditions: TSA, inoculum 10^7 /ml.
Source text: as §1, §2

The test system of test [6] is E. coli NIHJ JC-2. The description is as above. In kind it is cell-based, Escherichia coli. Conditions: TSA, inoculum 10^7 /ml.
Source text: as §1, §2

In test [7] the test system is E. coli T-7. Described as above. In kind it is cell-based, Escherichia coli. Conditions: TSA, inoculum 10^7 /ml.
Source text: as §1, §2

Test [8] concerns P. rettgeri GN4733. The description is as above. Conditions: TSA, inoculum 10^7 /ml. The test is classed as cell-based, Proteus rettgeri.
Source text: as §1, §2

In test [9] the test system is P. rettgeri TN 338. The test is described as above. The test is classed as cell-based, Proteus rettgeri. Conditions: TSA, inoculum 10^7 /ml.
Source text: as §1, §2

For test [10], the system named is E. coli 0-111. Described as above. In kind it is cell-based, Escherichia coli. Conditions: TSA, inoculum 10^7 /ml. The essentials: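 MIC against E. coli O-111 was determined by agar dilution.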
Test [11] relates to P. mirabilis GN 4359. The test is described as above. In kind it is cell-based, Proteus mirabilis. To be noted: TSA, inoculum 10^7 /ml.
Source text: as §1, §2

Test [12] deals with Escherichia coli 0-111. Description: Therapeutic effects in infected mice. To be noted: Escherichia coli, 0111, sc, 168 h. The test is classed as in vivo, Male mice ICR/SLC. How it is done: The preliminary therapeutic effects of some cephalosporin derivatives of this invention as determined in infected mice were as follows.
Determination of therapeutic effects in infected mice
Test animals: Male mice ICR/SLC
Each compound was administered to a group of 5 animals.
Route of infection: Intraperitoneally infected with Escherichia coli 0-111
Period of observation: 7 days.
Method of administration:
One mg of each test compound was dissolved in 100 ml of sterile physiological saline and a dilution series of the same solution was prepared. These solutions were respectively injected subcutaneously into mice immediately after infection, in a single dose of 0.2 ml each.

Test [13] deals with K. pneumoniae GN 3835. Put plainly: Minimal inhibitory concentration (M.I.C.), agar dilution method. In kind it is cell-based, Klebsiella pneumoniae. Conditions: TSA, inoculum 10^7 /ml.
Source text: as §1, §2

Test [14] relates to K. pneumoniae DT. The test is described as above. The test is classed as cell-based, Klebsiella pneumoniae. To be noted: TSA, inoculum 10^7 /ml.
Source text: as §1, §2

Test [15] deals with E. cloacae TN 1282. The test is described as above. To be noted: TSA, inoculum 10^7 /ml. In kind it is cell-based, Enterobacter cloacae.
Source text: as §1, §2

The test system of test [16] is S. aureus 1840. The test is described as above. The test is classed as cell-based, Staphylococcus aureus. To be noted: TSA, inoculum 10^7 /ml.
Source text: as §1, §2

For test [17], the system named is S. aureus 209P. The test is described as above. The test is classed as cell-based, Staphylococcus aureus. Conditions: TSA, inoculum 10^7 /ml.
Source text: as §1, §2

Test [18] deals with C. freundii GN 99. Described as above. In kind it is cell-based, Citrobacter freundii. To be noted: TSA, inoculum 10^7 /ml.
Source text: as §1, §2

Test [19] deals with C. freundii GN 1706. Described as above. The test is classed as cell-based, Citrobacter freundii. Conditions: TSA, inoculum 10^7 /ml.
Source text: as §1, §2

Each structure is given as a SMILES string.

One may read the ED50 as the dose that gives a 50% effect, or the effect in half of the subjects. The low end stands for an effect at a small dose, the high end for a need for a large dose. As to `CNC(=O)O/N=C(\C(=O)NC1C(=O)N2C(C(=O)O)=C(CSc3nnnn3C)CSC12)c1csc(=N)[nH]1` (stereo not drawn) [Example II - 4, sodium 7-[2-(2-imino-4-thiazolin-4-yl)-2-methylcarbamoyloximinoacetamido]-3-(1-methyl-1H-tetrazol-5-yl)thiomethyl-3-cephem-4-carboxylate (syn-isomer)], the “minimal inhibitory concentration (M.I.C.)” value in test [1] came to 0.1; in [2], 12.5; in [3] it was 0.1; in test [4] it was 0.78; in test [5], 1.56; in test [6], 0.2. Also, the “minimal inhibitory concentration (M.I.C.)” value in [7] is 1.56; in test [8], 0.1; in [9], not above 0.012; in test [10], 0.024; in test [11], 0.1; in test [13] it was 0.39. In addition, the “minimal inhibitory concentration (M.I.C.)” value in [14] was 0.05; in test [15], 1.56; in test [16], 1.56; in test [17], 1.56; in test [18] it was 0.1; in test [19], 0.39. In test [12], this compound yielded an ED50 of 0.025 mg/kg.
Regarding `CCCCNC(=O)O/N=C(\C(=O)NC1C(=O)N2C(C(=O)O)=C(COC(N)=O)CSC12)c1csc(=N)[nH]1` (stereo not drawn) [Example II - 21, sodium 7-[2-(2-imino-4-thiazolin-4-yl)-2-butylcarbamoyloximinoacetamido]-3-carbamoyloxymethyl-3-cephem-4-carboxylate (syn-isomer)], the “minimal inhibitory concentration (M.I.C.)” value in test [1] amounted to 1.56; in test [2] it was 50; in [3], 0.39; in test [4] it was 25; in test [5], 6.25; in test [6], 0.39. Besides, the “minimal inhibitory concentration (M.I.C.)” value in [7] was 3.13; in test [8], 0.39; in test [9], not above 0.012; in [10], 0.05; in test [11] it was 0.2; in [13] it was 0.39. In addition, the “minimal inhibitory concentration (M.I.C.)” value in test [14] is 0.1; in [15], 25; in test [16], 3.13; in test [17] it was 1.56; in [18], 0.39; in test [19], 0.78. Moreover, it took a dose of 0.1 mg/kg to reach the 50% effect level in test [12] (ED50).
